Laboratory results from patent US20260125371A1, “METHOD FOR INHIBITING CLOSTRIDIOIDES DIFFICILE SPORE GERMINATION” (UNIVERSITY OF NOTRE DAME DU LAC, priority 2022, published 2026).
In brackets after ≈: the same amount, converted by molar mass. Several values for one entry are separate records, joined by “and”; a condition that tells them apart may be missing. Identical values can stand only once. Like-named read-outs stand apart in the source and are kept apart here.

Columns and labels:
THP-1 cells = assay: Lactate dehydrogenase (LDH) cytotoxicity assay; type: cell-based, human; conditions: Homo sapiens; THP-1 cells, 24 h; read-out: LDH (IC50)
C. difficile ATCC 43255 = assay: Determination of minimal-inhibitory concentrations (microdilution), C. difficile ATCC 43255; type: cell-based, Clostridioides difficile; conditions: for MIC: Clostridioides difficile; for ATCC43255 MIC: C. difficile ATCC43255
[1] = system: C. difficile strain ATCC43255 spores; assay: Spore germination inhibition assay; type: cell-based, Clostridioides difficile; conditions: compound 45 μM, germinant 6 mM taurocholate and 12 mM glycine, OD600 over 60 min, duplicate; for inhibition at 45 µM: Clostridioides difficile, 1 h
S. aureus = assay: MIC against S. aureus strains; type: cell-based; conditions: S. aureus ATCC 29213, 24 h; for MIC: Staphylococcus aureus, ATCC29213, 24 h, read-out: MIC (μg/mL) 24 h
[2] = ATCC43255, 24 h, C. difficile ATCC 43255, 24 h, read-out: MIC (μg/mL) 24 h
[3] = ATCC43255, C. difficile ATCC43255, read-out: ATCC43255 MIC
[4] = C. difficile ATCC 43255, 48-h incubation
[5] = ATCC43255, 48 h, C. difficile ATCC 43255, 48-h incubation, read-out: MIC (μg/mL) 48 h

Structure (SMILES) | MIC (C. difficile ATCC 43255; [3]) | inhibition at 45 µM [1] | MIC (μg/mL) 48 h (C. difficile ATCC 43255; [4]) | MIC (μg/mL) 24 h (C. difficile ATCC 43255; C. difficile ATCC 43255, 24 h) | MIC (μg/mL) 24 h (S. aureus) | other results
Oc1ccc(-c2noc(-c3ccc(OC4CCCC4)cc3)n2)cc1 [Compound 137, 5-(4-(Cyclopentyloxy)phenyl)-3-(4-hydroxyphenyl)-1,2,4-oxadiazole] |  |  |  |  |  | IC50 (THP-1 cells): 8.5 ± 0.2 µg/mL (≈ 26.4 µM); MIC (C. difficile ATCC 43255; [2]): 4 µg/mL (≈ 12.4 µM); MIC (C. difficile ATCC 43255; ATCC43255, Table 1, strain ATCC 43255, read-out: MIC C. difficile): 4 µg/mL (≈ 12.4 µM)
Oc1ccc(-c2nc(-c3ccc(Oc4ccc(I)cc4)cc3)no2)cc1 [MAB-01-250A] |  |  |  |  |  | ATCC43255 MIC (C. difficile ATCC 43255): >128 µg/mL; % Spore Germination Inhibition at 45 μM [1]: 62 ± 2%
NCCCCc1nc(-c2ccc(Oc3ccc(C(F)(F)F)cc3)cc2)no1 [DR-06-025] | > 128 µg/mL | 44 ± 2% |  |  |  | 
NCc1ccc(-c2nc(-c3ccc(OC4CCCCC4)cc3)no2)cc1 [YQ-4-165] | 8 µg/mL (≈ 22.9 µM) | 50 ± 2% |  |  |  | 
O=C1CC(c2nc(-c3ccc(Oc4ccc(C(F)(F)F)cc4)cc3)no2)CN1 (centres unmarked) [DR-03-138] | > 128 µg/mL | 30 ± 14% |  |  |  | 
O=[N+]([O-])c1ccccc1Oc1ccc(-c2noc(-c3ccc(O)cc3)n2)nc1 [MAB-02-29A] | > 128 µg/mL | 26 ± 1% |  |  |  | 
NCc1ccc(-c2nc(-c3ccnc(-c4ccc(C(F)(F)F)cc4)c3)no2)cc1 [YQ-4-163] | 16 µg/mL (≈ 40.4 µM) | 68 ± 5% |  |  |  | 
O=[N+]([O-])c1ccc(-c2nc(-c3ccc(Oc4ccc(C(F)(F)F)cc4)cc3)no2)cc1 [Compound 19] |  |  | >128 µg/mL | >128 µg/mL | ≥128 µg/mL | 
FC(F)(F)c1ccc(Oc2ccc(-c3noc(-c4n[nH]cc4Br)n3)cc2)cc1 [Compound 27] |  |  | >128 µg/mL | >128 µg/mL | 1 µg/mL (≈ 2.22 µM) | 
Nc1cc(-c2nc(-c3ccc(Oc4ccc(C(F)(F)F)cc4)cc3)no2)ccn1 [Compound 24] |  |  | >128 µg/mL | >128 µg/mL | >128 µg/mL | 
NCc1ccc(-c2noc(-c3ccnc(-c4ccc(C(F)(F)F)cc4)c3)n2)cc1 [YQ-4-161] | > 128 µg/mL | 55 ± 1% |  |  |  | 
O=[N+]([O-])c1c[nH]c(-c2nc(-c3ccc(Oc4ccc(C(F)(F)F)cc4)cc3)no2)c1 [Compound 47] |  |  | 8 µg/mL (≈ 19.2 µM) | 8 µg/mL (≈ 19.2 µM) | 8 µg/mL (≈ 19.2 µM) | 
Oc1ccc(-c2nc(-c3ccc(OC4CCC4)cc3)no2)cc1 [Compound 93, 4-(3-(4-Cyclobutoxyphenyl)-1,2,4-oxadiazol-5-yl)phenol] |  |  |  |  |  | MIC (C. difficile ATCC 43255; [2]): > 128 µg/mL; MIC (C. difficile ATCC 43255; [5]): > 128 µg/mL; MIC (S. aureus): > 128 µg/mL
Nc1cc(-c2nc(-c3ccc(Oc4ccc(C(F)(F)F)cc4)cc3)no2)cnc1O [Compound 15] |  |  | >128 µg/mL | >128 µg/mL | >128 µg/mL | 
FC(F)(F)c1ccc(Oc2ccc(-c3noc(-c4cc[nH]n4)n3)cc2)cc1 [Compound 25] |  |  | >128 µg/mL | >128 µg/mL | >128 µg/mL | 
CCCCNc1c[nH]nc1-c1nc(-c2ccc(Oc3ccc(C(F)(F)F)cc3)cc2)no1 [Compound 40] |  |  | >128 µg/mL | >128 µg/mL | >128 µg/mL | 
FC(F)(F)c1ccc(Oc2ccc(-c3noc(-c4c[nH]cn4)n3)cc2)cc1 [Compound 34] |  |  | 8 µg/mL (≈ 21.5 µM) | 8 µg/mL (≈ 21.5 µM) | 2 µg/mL (≈ 5.37 µM) | 
NCc1ccc(-c2nc(-c3ccc(OC4CCCC4)cc3)no2)cc1 [YQ-4-81] | 4 µg/mL (≈ 11.9 µM) | 41 ± 1% |  |  |  | 
O=C(Nc1c[nH]nc1-c1nc(-c2ccc(Oc3ccc(C(F)(F)F)cc3)cc2)no1)c1ccccc1 [Compound 44] |  |  | >128 µg/mL | >128 µg/mL | >128 µg/mL | 
O=C1C[C@H](c2nc(-c3ccc(Oc4ccc(C(F)(F)F)cc4)cc3)no2)CN1 [Compound 31] |  |  | >128 µg/mL | >128 µg/mL | >128 µg/mL | 
FC(F)(F)c1ccc(Oc2ccc(-c3noc(-c4n[nH]cc4Cl)n3)cc2)cc1 [Compound 26] |  |  | >128 µg/mL | >128 µg/mL | 1 µg/mL (≈ 2.46 µM) | 
Nc1c[nH]nc1-c1nc(-c2ccc(Oc3ccc(C(F)(F)F)cc3)cc2)no1 [Compound 37] |  |  | >128 µg/mL | >128 µg/mL | 4 µg/mL (≈ 10.3 µM) | 
Oc1ccc(-c2nc(-c3ccc(Oc4ccccc4CBr)cc3)no2)cc1 [MAB-02-59A] | > 128 µg/mL | 30 ± 3% |  |  |  | 

Structure (SMILES) | MIC (C. difficile ATCC 43255; [3]) | inhibition at 45 µM [1] | MIC (μg/mL) 48 h (C. difficile ATCC 43255; [4]) | MIC (μg/mL) 24 h (C. difficile ATCC 43255; C. difficile ATCC 43255, 24 h) | MIC (μg/mL) 24 h (S. aureus) | other results
O=C(Nc1c[nH]nc1-c1nc(-c2ccc(Oc3ccc(C(F)(F)F)cc3)cc2)no1)c1ccccn1 [Compound 43] |  |  | >128 µg/mL | >128 µg/mL | >128 µg/mL | 
O=C1C[C@@H](c2nc(-c3ccc(Oc4ccc(C(F)(F)F)cc4)cc3)no2)CN1 [Compound 32] |  |  | >128 µg/mL | >128 µg/mL | >128 µg/mL | 
CC(C)Oc1ccc(-c2noc(-c3ccc(CN)cc3)n2)cc1C(F)(F)F [YQ-4-155] | 16 µg/mL (≈ 42.4 µM) | 33 ± 1% |  |  |  | 
FC(F)(F)c1ccc(Oc2ccc(-c3noc(-c4n[nH]cc4NC4CCCC4)n3)cc2)cc1 [Compound 38] |  |  | >128 µg/mL | >128 µg/mL | >128 µg/mL | 
FC(F)(F)c1ccc(Oc2ccc(-c3noc(-c4c[nH]c5ncccc45)n3)cc2)cc1 [Compound 46] |  |  | >128 µg/mL | >128 µg/mL | >128 µg/mL | 
O=[N+]([O-])c1c[nH]nc1-c1nc(-c2ccc(Oc3ccc(C(F)(F)F)cc3)cc2)no1 [DR-04-089] |  |  |  |  |  | ATCC43255 MIC (C. difficile ATCC 43255): >128 µg/mL; % Spore Germination Inhibition at 45 μM [1]: 20 ± 3%
NCCc1ccc(-c2nc(-c3ccc(Oc4ccc(F)cc4)cn3)no2)cc1 [YQ-4-170] | 8 µg/mL (≈ 21.3 µM) | 48 ± 2% |  |  |  | 
NCc1ccc(-c2nc(-c3ccc(Oc4ccc(F)cc4)cc3)no2)cc1 [DR-05-250] | > 128 µg/mL | 73 ± 5% |  |  |  | 
Oc1ccc(-c2nc(-c3ccc(Oc4ccc(C(F)(F)F)cc4)cc3)no2)cc1O [Compound 12] |  |  | 128 µg/mL and >128 µg/mL | >128 µg/mL | 2 µg/mL (≈ 4.83 µM) | 
CC(C)(C)OC(=O)N1CCC(Nc2c[nH]nc2-c2nc(-c3ccc(Oc4ccc(C(F)(F)F)cc4)cc3)no2)CC1 [Compound 42] |  |  | >128 µg/mL | >128 µg/mL | >128 µg/mL | 
CCCOc1ccc(-c2noc(-c3ccc(O)cc3)n2)cc1 [Compound 87, 4-(3-(4-Propoxyphenyl)-1,2,4-oxadiazol-5-yl)phenol] |  |  |  |  |  | MIC (C. difficile ATCC 43255; [2]): 4 µg/mL (≈ 13.5 µM); MIC (C. difficile ATCC 43255; [5]): > 128 µg/mL; MIC (S. aureus): 128 µg/mL (≈ 432 µM)
Nc1ccc(-c2nc(-c3ccc(Oc4ccc(C(F)(F)F)cc4)cc3)no2)cc1F [Compound 20] |  |  | >128 µg/mL | >128 µg/mL | 2 µg/mL (≈ 4.82 µM) | 
NCc1ccc(-c2nc(-c3ccnc(Oc4ccc(C(F)(F)F)cc4)c3)no2)cc1 [YQ-4-104] | 8 µg/mL (≈ 19.4 µM) | 74 ± 5% |  |  |  | 
Nc1cc(Oc2ccccc2)cnc1-c1noc(-c2ccc(O)cc2)n1 [MAB-02-27A] | > 128 µg/mL | 17 ± 1% |  |  |  | 
O=c1ccc(-c2nc(-c3ccc(Oc4ccc(C(F)(F)F)cc4)cc3)no2)c[nH]1 [Compound 14] |  |  | >128 µg/mL | >128 µg/mL | >128 µg/mL | 
NCc1ccc(-c2nc(-c3ccc(Oc4ccc(C(F)(F)F)cc4)cn3)no2)cc1 [YQ-4-107] |  | 24 ± 3% |  |  |  | 
NCc1ccc(-c2nc(-c3ccc(OC4CCCC4)cc3)no2)cc1 [Compound 53, (4-(3-(4-(Cyclopentyloxy)phenyl)-1,2,4-oxadiazol-5-yl)phenyl) methanamine] |  |  |  |  |  | MIC (C. difficile ATCC 43255; [2]): 4 µg/mL (≈ 11.9 µM); MIC (C. difficile ATCC 43255; [5]): 8 µg/mL (≈ 23.9 µM); MIC (S. aureus): 2 µg/mL (≈ 5.96 µM)
FC(F)(F)c1ccc(Oc2ccc(-c3noc(-c4cn[nH]n4)n3)cc2)cc1 [Compound 35] |  |  | >128 µg/mL | >128 µg/mL | 16 µg/mL (≈ 42.9 µM) | 
C#Cc1ccc(Oc2cnc(-c3noc(-c4ccc(CN)cc4)n3)cc2C2(C(F)(F)F)N=N2)cc1 [YQ-4-169] |  |  |  |  |  | ATCC43255 MIC (C. difficile ATCC 43255): 8 µg/mL; % Spore Germination Inhibition at 45 μM [1]: 63 ± 3%
Cl.NCCCCc1nc(-c2ccc(OC3CCCC3)cc2)no1 [Compound 67, 4-(3-(4-(Cyclopentyloxy)phenyl)-1,2,4-oxadiazol-5-yl)butan-1-amine hydrochloride salt] |  |  |  |  |  | MIC (C. difficile ATCC 43255; [2]): 128 µg/mL; MIC (C. difficile ATCC 43255; [5]): 128 µg/mL; MIC (S. aureus): > 128 µg/mL
Oc1ccc(-c2cc(-c3ccc(Oc4ccccc4)cc3)no2)cc1 [Compound 135, 4-(3-(4-Phenoxyphenyl)isoxazol-5-yl)phenol] |  |  | >128 µg/mL |  |  | MIC (C. difficile ATCC 43255; [2]): > 128 µg/mL; MIC (S. aureus): > 128 µg/mL
NCc1ccc(-c2nc(-c3ccc(Oc4ccc(F)c(F)c4)cn3)no2)cc1 [YQ-4-99] | 8 µg/mL (≈ 21 µM) | 44 ± 3% |  |  |  | 
FC(F)(F)c1ccc(Oc2ccc(-c3noc(-c4ccc(Br)cc4)n3)cc2)cc1 [Compound 18] |  |  | >128 µg/mL | >128 µg/mL | >128 µg/mL | 
